Series [1] concerns the target T1, recombinant (E)-β-farnesene synthase (SEQ ID NO:2) (Mentha piperita, UniProt O48935).
T1 construct: made in house; host or cells: E. coli XL1-Blue harboring pBluescript clone p43
T1 sequence (O48935 1-550): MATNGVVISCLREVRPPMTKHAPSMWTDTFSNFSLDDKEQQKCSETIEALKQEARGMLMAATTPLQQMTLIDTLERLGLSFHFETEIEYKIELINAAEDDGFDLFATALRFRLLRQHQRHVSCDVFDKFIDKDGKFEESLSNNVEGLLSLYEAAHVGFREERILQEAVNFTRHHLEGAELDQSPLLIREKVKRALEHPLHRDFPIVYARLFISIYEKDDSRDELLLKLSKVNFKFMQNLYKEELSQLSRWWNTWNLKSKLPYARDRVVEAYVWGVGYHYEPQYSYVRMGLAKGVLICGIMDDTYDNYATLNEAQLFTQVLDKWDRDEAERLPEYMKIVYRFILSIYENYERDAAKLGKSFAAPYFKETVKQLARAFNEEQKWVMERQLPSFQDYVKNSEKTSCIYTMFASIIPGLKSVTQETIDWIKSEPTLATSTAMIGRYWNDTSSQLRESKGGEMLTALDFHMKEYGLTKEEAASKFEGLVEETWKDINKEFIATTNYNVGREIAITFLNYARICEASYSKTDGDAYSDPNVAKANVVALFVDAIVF
Description: Kinetic characterization of recombinant, partially purified (E)-β-farnesene synthase (sesquiterpene/monoterpene/diterpene synthase assay). The class given is biochemical, peppermint (Mentha piperita).
Description: (§1) Cell-Free Assays. […] The sonicate was centrifuged at 3700×g for 15 minutes, and an aliquot of the supernatant was then placed in a 10 ml screw-capped glass test tube containing divalent metal ions (10 mM MgCl2 and 1 mM MnCl2) and substrate (7.3 μM [1-^3H]FDP). The aqueous layer was overlaid with 1 ml pentane and the seated tube was incubated at 30° C. for two hours. The pentane overlay was then collected and the aqueous layer was extracted twice (1 ml) with pentane. The combined pentane extracts were passed through an anhydrous MgSO4-silica gel column to obtain the labeled hydrocarbon fraction for GC-MS analysis, or for radio-GC analysis using peppermint oil as an internal standard.
(§2) The chilled sonicate was cleared by centrifugation and the supernatant was assayed for sesquiterpene synthase activity as before, or for monoterpene synthase activity (with 4.5 μM [1-^3H]GDP) or diterpene synthase activity (with 10 μM [1-^3H]GGDP). In all cases, the pentane-soluble reaction products were purified by MgSO4-silica gel chromatography, as above, to prepare the olefin fraction for further analysis.
(§3) For determination of the pH optimum of (E)-β-farnesene synthase (SEQ ID NO:2), the preparation was adjusted with 50 mM Mopso (to a pH of 6.5, 6.75, 7.0, 7.25, 7.5, 8.0, or 8.5) before the assay. Kinetic constants for FDP, GDP, Mg^++ and Mn^++ were determined using a preparation of (E)-β-farnesene synthase (SEQ ID NO:2) that was partially purified by anion-exchange chromatography (on a Mono-Q column (Pharmacia) equilibrated with assay buffer and eluted with a linear KCl gradient (0 to 500 mM) in assay buffer). The 210-230 mM fraction containing the (E)-β-farnesene synthase (SEQ ID NO:2) was used for kinetic evaluation of FDP and GDP as substrates (concentration range 0.31 to 20 μM, with saturating Mg^++). […] Kinetic constants for Mg^++ and Mn^++ (assay range 1 μM to 2 mM of the chloride salts) were then determined at 7.3 μM [1-^3H]FDP. […]

The test system of a further series is whiteflies. The following applies: vapor; cited from earlier work.
A further series has as its system aphids. The following applies: dose of 100 ng/aphid; cited from earlier work.
Substrate in series [2]: CC(C)=CCC/C(C)=C/CC/C(C)=C/CO[P@@](=O)(O)OP(=O)(O)O
Description: Kinetic characterization of recombinant, partially purified (E)-β-farnesene synthase (sesquiterpene/monoterpene/diterpene synthase assay). It is filed as biochemical, peppermint (Mentha piperita). To be noted: other: substrate range 0.31 to 20 μM, saturating Mg++; double reciprocal plot.
Description: as §1, §2, §3

For `CC(C)=CCC/C(C)=C/COP(=O)(O)OP(=O)(O)O` [GDP, geranyl diphosphate], the Km in series [1] (substrate range 0.31 to 20 μM, saturating Mg++, double reciprocal plot) came out at 1.5 µM.

`C=CC(=C)CC/C=C(\C)CCC=C(C)C` [(E)-β-farnesene]: in the series on whiteflies, the toxicity to whiteflies result was “toxic”. The “acute toxicity to aphids” value in the series on aphids was “acutely toxic”.

`CC(C)=CCC/C(C)=C/CC/C(C)=C/CC/C(C)=C/COP(=O)(O)OP(=O)(O)O` [[1-^3H]GGDP, geranylgeranyl diphosphate]: in series [1] (C20 substrate analog, 10 μM), the “activity of the synthase with the substrate analog” value is “inactive”.

B1: recombinant (E)-β-farnesene synthase (SEQ ID NO:2) (Mentha x piperita) (protein)
chain: T1 sequence (O48935 1-550)
notes: made in house; host or cells: E. coli XL1-Blue harboring pBluescript clone p43
B1: the Km in series [2] was found to be 0.6 µM.

Broadly, the Km is the substrate concentration at which the rate is half of its maximum.
